From ChEMBL document CHEMBL1201862, “PubChem BioAssay data set” (2004)
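Method: 48-hour compound exposure of cells in 96-well plates, five concentrations, linear interpolation of endpoints. GI50: concentration for 50% inhibition of growth.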 Active and inactive are the calls of the source. Rule as the data show it: active = GI50 up to about 1.1 µM and inactive = higher.

Key:
Assay in all cases: DTP human tumour cell line panel, 48 h
SF-295 = tested on: SF-295
TK-10 = tested on: TK-10
DLD-1 = tested on: DLD-1
OVCAR-8 = tested on: OVCAR-8
SN12C = tested on: SN12C
SK-MEL-2 = tested on: SK-MEL-2
RXF 393 = tested on: RXF 393
HOP-62 = tested on: HOP-62
SK-MEL-28 = tested on: SK-MEL-28
HL-60 = tested on: HL-60
K562 = tested on: K562
SNB-75 = tested on: SNB-75
UACC-257 = tested on: UACC-257
SF-268 = tested on: SF-268
XF498 = tested on: XF498
Malme-3M = tested on: Malme-3M
ACHN = tested on: ACHN
NCI-H23 = tested on: NCI-H23
HOP-92 = tested on: HOP-92
RPMI-8226 = tested on: RPMI-8226
OVCAR-5 = tested on: OVCAR-5
HCT-116 = tested on: HCT-116
NCI-H522 = tested on: NCI-H522
M14 = tested on: M14
CCRF-CEM = tested on: CCRF-CEM
SNB-19 = tested on: SNB-19
786-0 = tested on: 786-0
LXFL 529 = tested on: LXFL 529
UACC-62 = tested on: UACC-62
HOP-18 = tested on: HOP-18
KM12 = tested on: KM12
DMS-273 = tested on: DMS-273
COLO 205 = tested on: COLO 205
M19-MEL = tested on: M19-MEL
UO-31 = tested on: UO-31
SW-620 = tested on: SW-620
U-251 = tested on: U-251
HCT-15 = tested on: HCT-15
NCI-H226 = tested on: NCI-H226
SF-539 = tested on: SF-539
SR = tested on: SR
CAKI-1 = tested on: CAKI-1
SK-MEL-5 = tested on: SK-MEL-5
A549 = tested on: A549
OVCAR-3 = tested on: OVCAR-3
SK-OV-3 = tested on: SK-OV-3
IGROV-1 = tested on: IGROV-1
KM-20L2 = tested on: KM-20L2
OVCAR-4 = tested on: OVCAR-4
DMS-114 = tested on: DMS-114
HT-29 = tested on: HT-29
LOX IMVI = tested on: LOX IMVI
NCI-H460 = tested on: NCI-H460
MOLT-4 = tested on: MOLT-4
HCC 2998 = tested on: HCC 2998
SNB-78 = tested on: SNB-78
EKVX = tested on: EKVX
A498 = tested on: A498

CN(C(=O)c1ccco1)C(=S)N1CCN(c2ccccc2)CC1
GI50 (SF-295): > 100 µM (inactive) | GI50 (TK-10): > 100 µM (inactive) | GI50 (DLD-1): > 100 µM (inactive) | GI50 (OVCAR-8): > 100 µM (inactive) | GI50 (SN12C): > 100 µM (inactive) | GI50 (SK-MEL-2): > 100 µM (inactive) | GI50 (RXF 393): > 100 µM (inactive) | GI50 (HOP-62): > 100 µM (inactive) | GI50 (SK-MEL-28): > 100 µM (inactive) | GI50 (HL-60): > 100 µM (inactive) | GI50 (K562): > 100 µM (inactive) | GI50 (SNB-75): > 100 µM (inactive) | GI50 (UACC-257): > 100 µM (inactive) | GI50 (SF-268): > 100 µM (inactive) | GI50 (XF498): > 100 µM (inactive) | GI50 (Malme-3M): > 100 µM (inactive) | GI50 (ACHN): > 100 µM (inactive) | GI50 (NCI-H23): > 100 µM (inactive) | GI50 (HOP-92): > 100 µM (inactive) | GI50 (RPMI-8226): > 100 µM (inactive) | GI50 (OVCAR-5): > 100 µM (inactive) | GI50 (HCT-116): > 100 µM (inactive) | GI50 (NCI-H522): > 100 µM (inactive) | GI50 (M14): > 100 µM (inactive) | GI50 (CCRF-CEM): > 100 µM (inactive) | GI50 (SNB-19): > 100 µM (inactive) | GI50 (786-0): > 100 µM (inactive) | GI50 (LXFL 529): > 100 µM (inactive) | GI50 (UACC-62): > 100 µM (inactive) | GI50 (HOP-18): > 100 µM (inactive) | GI50 (KM12): > 100 µM (inactive) | GI50 (DMS-273): > 100 µM (inactive) | GI50 (COLO 205): > 100 µM (inactive) | GI50 (M19-MEL): > 100 µM (inactive) | GI50 (UO-31): > 100 µM (inactive) | GI50 (SW-620): > 100 µM (inactive) | GI50 (U-251): > 100 µM (inactive) | GI50 (HCT-15): > 100 µM | GI50 (NCI-H226): 71.3 µM (inactive) | GI50 (SF-539): > 100 µM (inactive) | GI50 (SR): > 100 µM (inactive) | GI50 (CAKI-1): > 100 µM (inactive) | GI50 (SK-MEL-5): > 100 µM (inactive) | GI50 (A549): > 100 µM (inactive) | GI50 (OVCAR-3): > 100 µM (inactive) | GI50 (SK-OV-3): > 100 µM (inactive) | GI50 (IGROV-1): > 100 µM (inactive) | GI50 (KM-20L2): > 100 µM (inactive) | GI50 (OVCAR-4): > 100 µM (inactive) | GI50 (DMS-114): > 100 µM (inactive) | GI50 (HT-29): > 100 µM (inactive) | GI50 (LOX IMVI): > 100 µM (inactive) | GI50 (NCI-H460): > 100 µM (inactive) | GI50 (MOLT-4): > 100 µM (inactive)

O=C(OC/C=C1C=C(OC(=O)c2ccccc2)/C(=N/N(C(=O)c2ccccc2)c2ccccc2)O\1)c1ccccc1
GI50 (RXF 393): 2.12 µM (inactive) | GI50 (K562): < 0.01 µM (active) | GI50 (XF498): 15.8 µM (inactive) | GI50 (HCC 2998): < 0.01 µM (active) | GI50 (RPMI-8226): < 0.01 µM (active) | GI50 (SNB-19): < 0.01 µM (active) | GI50 (HOP-18): < 0.01 µM (active) | GI50 (KM12): < 0.01 µM (active) | GI50 (NCI-H226): 0.512 µM (active) | GI50 (SR): < 0.01 µM (active) | GI50 (CAKI-1): < 0.01 µM (active) | GI50 (SNB-78): 26.3 µM (inactive) | GI50 (DMS-114): 12.8 µM (inactive) | GI50 (MOLT-4): < 0.01 µM (active)

CC1=CC(=C(c2ccc(N)c(C)c2)c2ccc(N)c(C)c2)C=CC1=N
GI50 (SF-295): 0.873 µM (active) | GI50 (TK-10): 15.5 µM (inactive) | GI50 (DLD-1): 3.78 µM (inactive) | GI50 (OVCAR-8): 1.37 µM (inactive) | GI50 (SN12C): 0.33 µM (active) | GI50 (SK-MEL-2): 2.73 µM (inactive) | GI50 (RXF 393): 5.92 µM (inactive) | GI50 (HOP-62): 2.79 µM (inactive) | GI50 (SK-MEL-28): 5.71 µM (inactive) | GI50 (HL-60): 3.72 µM (inactive) | GI50 (K562): 2.92 µM (inactive) | GI50 (SNB-75): 1.51 µM (inactive) | GI50 (UACC-257): 3 µM (inactive) | GI50 (SF-268): 0.499 µM (active) | GI50 (XF498): 2.91 µM (inactive) | GI50 (HCC 2998): 3.44 µM (inactive) | GI50 (Malme-3M): 2.91 µM (inactive) | GI50 (ACHN): 8.45 µM (inactive) | GI50 (NCI-H23): 2.97 µM (inactive) | GI50 (HOP-92): 3.32 µM (inactive) | GI50 (RPMI-8226): 2.18 µM (inactive) | GI50 (OVCAR-5): 5.42 µM (inactive) | GI50 (EKVX): 4.89 µM (inactive) | GI50 (HCT-116): 3.37 µM (inactive) | GI50 (NCI-H522): 3.03 µM (inactive) | GI50 (M14): 4.95 µM (inactive) | GI50 (CCRF-CEM): 2.86 µM (inactive) | GI50 (SNB-19): 0.689 µM (active) | GI50 (786-0): 3.11 µM (inactive) | GI50 (LXFL 529): 1.27 µM (inactive) | GI50 (UACC-62): 2.69 µM (inactive) | GI50 (KM12): 3.24 µM (inactive) | GI50 (DMS-273): 2.45 µM (inactive) | GI50 (COLO 205): 1.93 µM (inactive) | GI50 (M19-MEL): 2.65 µM (inactive) | GI50 (UO-31): 28.3 µM (inactive) | GI50 (SW-620): 3.8 µM (inactive) | GI50 (U-251): 0.411 µM (active) | GI50 (HCT-15): 12.8 µM | GI50 (NCI-H226): 3.93 µM (inactive) | GI50 (SF-539): 2.67 µM (inactive) | GI50 (SR): 2.99 µM (inactive) | GI50 (CAKI-1): 15.2 µM (inactive) | GI50 (SK-MEL-5): 2.07 µM (inactive) | GI50 (A549): 3.6 µM (inactive) | GI50 (OVCAR-3): 4.49 µM (inactive) | GI50 (SK-OV-3): 4.66 µM (inactive) | GI50 (IGROV-1): 13.4 µM (inactive) | GI50 (A498): 9.16 µM (inactive) | GI50 (SNB-78): 4.84 µM (inactive) | GI50 (KM-20L2): 3.33 µM (inactive) | GI50 (OVCAR-4): 10.5 µM (inactive) | GI50 (DMS-114): 1.2 µM (inactive) | GI50 (HT-29): 3.64 µM (inactive) | GI50 (LOX IMVI): 4.2 µM (inactive) | GI50 (NCI-H460): 3.61 µM (inactive) | GI50 (MOLT-4): 3.65 µM (inactive)

Nc1nc(=O)c(/N=N/c2ccccc2)c(N)[nH]1
GI50 (SF-295): 32.7 µM (inactive) | GI50 (TK-10): 59.8 µM (inactive) | GI50 (DLD-1): 43.1 µM (inactive) | GI50 (OVCAR-8): 43.5 µM (inactive) | GI50 (SN12C): 52.7 µM (inactive) | GI50 (SK-MEL-2): 39.2 µM (inactive) | GI50 (HOP-62): 30.8 µM (inactive) | GI50 (SK-MEL-28): 24.8 µM (inactive) | GI50 (HL-60): 28.1 µM (inactive) | GI50 (K562): 11 µM (inactive) | GI50 (SNB-75): 3.78 µM (inactive) | GI50 (UACC-257): 56.9 µM (inactive) | GI50 (SF-268): 28.1 µM (inactive) | GI50 (XF498): 60.1 µM (inactive) | GI50 (HCC 2998): 38.4 µM (inactive) | GI50 (Malme-3M): 15.3 µM (inactive) | GI50 (ACHN): 27.4 µM (inactive) | GI50 (NCI-H23): 22.8 µM (inactive) | GI50 (HOP-92): 22.5 µM (inactive) | GI50 (RPMI-8226): > 100 µM (inactive) | GI50 (OVCAR-5): 41.3 µM (inactive) | GI50 (HCT-116): 16.1 µM (inactive) | GI50 (NCI-H522): 47.4 µM (inactive) | GI50 (M14): 28 µM (inactive) | GI50 (CCRF-CEM): 36.5 µM (inactive) | GI50 (SNB-19): > 100 µM (inactive) | GI50 (786-0): 55 µM (inactive) | GI50 (UACC-62): 18.6 µM (inactive) | GI50 (HOP-18): 38 µM (inactive) | GI50 (KM12): 56.2 µM (inactive) | GI50 (DMS-273): 37.2 µM (inactive) | GI50 (COLO 205): 65 µM (inactive) | GI50 (M19-MEL): 39.3 µM (inactive) | GI50 (UO-31): 42.4 µM (inactive) | GI50 (SW-620): 78.2 µM (inactive) | GI50 (U-251): 14.4 µM (inactive) | GI50 (HCT-15): 30.5 µM | GI50 (NCI-H226): 76 µM (inactive) | GI50 (SF-539): 26.4 µM (inactive) | GI50 (SR): > 100 µM (inactive) | GI50 (CAKI-1): 66.7 µM (inactive) | GI50 (SK-MEL-5): 51.8 µM (inactive) | GI50 (A549): 29.9 µM (inactive) | GI50 (OVCAR-3): 71.8 µM (inactive) | GI50 (SK-OV-3): 60.3 µM (inactive) | GI50 (IGROV-1): 29.6 µM (inactive) | GI50 (A498): 45.2 µM (inactive) | GI50 (SNB-78): 19.6 µM (inactive) | GI50 (KM-20L2): 59.2 µM (inactive) | GI50 (OVCAR-4): > 100 µM (inactive) | GI50 (DMS-114): 25.6 µM (inactive) | GI50 (HT-29): 28.4 µM (inactive) | GI50 (LOX IMVI): 47.5 µM (inactive) | GI50 (NCI-H460): 24.6 µM (inactive) | GI50 (MOLT-4): > 100 µM (inactive)
